Reference: US12583851B2, “Heteroaryl-substituted pyrazine derivatives as pesticides” (Elanco Animal Health GmbH, priority 2019, dated 2026)

Assays:
Format in all cases: in vivo
[1] = tested on: Rhipicephalus (Boophilus) microplus larvae (strain Parkhurst, resistant against synthetic pyrethroids); test: Rhipicephalus (Boophilus) microplus in-vitro contact test, larval cattle tick; details: after 48 hours, read-out: efficacy (larvae dead or moribund); for pest or weed control at 1 µg/cm2, 100 g/ha: 1 μg/cm^2 (=100 g/ha); for pest or weed control at 5 µg/cm2, 500 g/ha: 5 μg/cm^2 (=500 g/ha)
In short: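 Pyrethroid-resistant larvae (strain Parkhurst), 20–50 per tube, exposed by contact to a dried acetone film of compound (5 μg/cm² at 900 ppm) for 48 h at 27 °C and 85% humidity. Percent dead or moribund larvae scored from negative geotactic behaviour.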

[2] = tested on: adult cat fleas (Ctenocephalides felis); test: Ctenocephalides felis in-vitro contact test, adult cat flea; details: after 48 hours, read-out: efficacy (fleas dead or moribund); for pest or weed control at 5 µg/cm2, 500 g/ha: 5 μg/cm^2 (=500 g/ha); for pest or weed control at 1 µg/cm2, 100 g/ha: 1 μg/cm^2 (=100 g/ha)
Procedure: Ctenocephalides felis—In-Vitro Contact Tests Adult Cat Flea
(§1) 9 mg compound is solved in 1 ml acetone and diluted with acetone to the desired concentration. 250 μL of the test solution is filled in 25 mL glass test tubes and homogeneously distributed on the inner walls by rotation and tilting on a shaking device (2 h at 30 rpm). With a compound concentration of 900 ppm, an inner surface of 44.7 cm^2 and a homogeneous distribution, a dose of 5 μg/cm^2 is achieved.
(§2) After the solvent has evaporated, each test tube is filled with 5-10 adult cat fleas (Ctenocephalides felis), closed with a perforated lid and incubated in a lying position at room temperature and relative humidity. After 48 hours efficacy is determined. The fleas are patted on the ground of the tubes and are incubated on a heating plate at 45-50° C. for at most 5 minutes Immotile or uncoordinated moving fleas, which are not able to escape the heat by climbing upwards, are marked as dead or moribund.
An efficacy of 100% means all fleas are dead or moribund; 0% means no fleas are dead or moribund.

[3] = tested on: fall armyworm larvae (Spodoptera frugiperda); test: Spodoptera frugiperda spray test; details: 168 h, maize leaf sections, after 7 days
In short: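 Percent larval kill read at day 7, from 0% (no caterpillars dead) to 100% (all dead). Larvae were placed on dried Zea mays leaf discs previously sprayed with test preparations made from an acetone/DMF solution diluted in 1000 ppm emulsifier-containing water.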

[4] = tested on: larvae of the banded cucumber beetle (Diabrotica balteata); test: Diabrotica balteata spray test; details: 168 h, after 7 days, read-out: efficacy (seedling growth); for pest or weed control at 6.4 µg/disc, 20 g/ha: 20 g/ha (=6.4 μg/well); for pest or weed control at 32 µg/disc, 100 g/ha: 100 g/ha (=32 μg/well)
In short: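 Efficacy was read 7 days after infesting each unit with 10–20 banded cucumber beetle larvae, as % of seedlings growing like untreated, uninfested controls. Before infestation, wheat seeds germinated 1 day on agar (5 per well) were sprayed with the active ingredient. The active was formulated in acetone/DMF and diluted in water containing emulsifier.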

[5] = tested on: adult brown dog ticks (Rhipicephalus sanguineus); test: Rhipicephalus sanguineus in-vitro contact test, adult brown dog ticks; details: 48 h, after 48 hours, read-out: efficacy (ticks dead or moribund); for pest or weed control at 5 µg/cm2, 500 g/ha: 5 μg/cm^2 (=500 g/ha)
Procedure: Rhipicephalus sanguineus—In-Vitro Contact Tests with Adult Brown Dog Ticks
as §1, with “mL” for “ml”, “[…]” for “250 μL”
as §2, with “brown dog ticks (Rhipicephalus sanguineus),” for “cat fleas (Ctenocephalides felis),”, “ticks” for “fleas”, “ticks,” for “fleas,”
An efficacy of 100% means all ticks are dead or moribund; 0% means no ticks are dead or moribund.

| Structure (SMILES) | pest or weed control at 1 µg/cm2, 100 g/ha [1] | pest or weed control at 5 µg/cm2, 500 g/ha [1] | pest or weed control at 5 µg/cm2, 500 g/ha [2] | mortality at 100 g/ha [3] | pest or weed control at 1 µg/cm2, 100 g/ha [2] | pest or weed control at 6.4 µg/disc, 20 g/ha [4] | pest or weed control at 32 µg/disc, 100 g/ha [4] | pest or weed control at 5 µg/cm2, 500 g/ha [5] | pest or weed control at 1 µg/cm2, 100 g/ha ([5]; 1 μg/cm^2 (=100 g/ha)) |
| --- | --- | --- | --- | --- | --- | --- | --- | --- | --- |
| CC(NC(=O)c1cc(C(F)(F)F)cc(C(F)(F)F)c1)c1nccnc1-c1ccc(C(=O)N(C)CC2CC2)cn1 (racemic) [Example I-32, (rac)-6-(3-{1-[3,5-Bis(trifluoromethyl)benzamido]ethyl}pyrazin-2-yl)-N-(cyclopropylmethyl)-N-methylpyridine-3-carboxamide] | 100% | 100% | 100% | 100% | – | – | – | – | – |
| CC(NC(=O)c1cc(Br)cc(C#N)c1)c1nccnc1-c1ccc(C(=O)N2CCOCC2)cn1 (racemic) [Example I-33, (rac)-3-Bromo-5-cyano-N-[1-{3-[5-(morpholine-4-carbonyl)pyridin-2-yl]pyrazin-2-yl}ethyl]benzamide] | 90% | 100% | 100% | – | 100% | – | – | – | – |
| CCNC(=O)c1ccc(-c2nccnc2C(C)NC(=O)c2cc(C(F)(F)F)cc(C(F)(F)F)c2)nc1 (racemic) [Example I-35, (rac)-6-(3-{1-[3,5-Bis(trifluoromethyl)benzamido]ethyl}pyrazin-2-yl)-N-ethylpyridine-3-carboxamide] | 100% | 100% | 100% | – | 80% | – | – | – | – |
| CC(NC(=O)c1cc(Br)cc(C#N)c1)c1nccnc1-c1ccc(Cl)cn1 (racemic) [Example I-48, (rac)-3-Bromo-N-{1-[3-(5-chloropyridin-2-yl)pyrazin-2-yl]ethyl}-5-cyanobenzamide] | – | – | – | 100% | – | 80% | 100% | 80% | – |
| CC(NC(=O)c1cc(Cl)cc(C(F)(F)F)c1)c1nccnc1-c1ncc(C(=O)N2CCOCC2)s1 (racemic) [Example I-59, (rac)-3-Chloro-N-[1-{3-[5-(morpholine-4-carbonyl)-1,3-thiazol-2-yl]pyrazin-2-yl}ethyl]-5-(trifluoromethyl)benzamide] | 100% | 100% | – | 83% | – | – | 100% | 100% | – |
| CC(NC(=O)c1cc(Br)cc(OC(F)(F)F)c1)c1nccnc1-c1ncc(C(=O)N2CCOCC2)s1 (racemic) [Example I-61, (rac)-3-Bromo-N-[1-{3-[5-(morpholine-4-carbonyl)-1,3-thiazol-2-yl]pyrazin-2-yl}ethyl]-5-(trifluoromethoxy)benzamide] | 100% | 100% | 100% | – | 100% | – | – | – | – |
| CC(NC(=O)c1cc(C(F)(F)F)cc(C(F)(F)F)c1)c1nccnc1-c1ncc(C(=O)N2CCCOCC2)s1 (racemic) [Example I-68, (rac)-N-[1-{3-[5-(1,4-Oxazepane-4-carbonyl)-1,3-thiazol-2-yl]pyrazin-2-yl}ethyl]-3,5-bis(trifluoromethyl)benzamide] | 100% | 100% | 100% | – | 100% | – | 100% | 100% | – |
| CCN(C)C(=O)c1cnc(-c2nccnc2C(C)NC(=O)c2cc(C(F)(F)F)cc(C(F)(F)F)c2)s1 (racemic) [Example I-72, (rac)-2-(3-{1-[3,5-Bis(trifluoromethyl)benzamido]ethyl}pyrazin-2-yl)-N-ethyl-N-methyl-1,3-thiazole-5-carboxamide] | 100% | 100% | – | 100% | – | 100% | 100% | 80% | – |
| CC(NC(=O)c1cc(Br)cc(OC(F)(F)F)c1)c1nccnc1-n1cc(C(F)(F)F)cn1 (racemic) [Example I-94, (rac)-3-Bromo-5-(trifluoromethoxy)-N-[1-{3-[4-(trifluoromethyl)-1H-pyrazol-1-yl]pyrazin-2-yl}ethyl]benzamide] | 100% | 100% | – | 100% | – | – | 100% | 80% | – |
| CC(NC(=O)c1cc(Br)cc(C(F)(F)F)c1)c1nccnc1-c1ncc(C(=O)N(C)C)s1 (racemic) [Example I-118, (rac)-2-(3-{1-[3-Bromo-5-(trifluoromethyl)benzamido]ethyl}pyrazin-2-yl)-N,N-dimethyl-1,3-thiazole-5-carboxamide] | 100% | 100% | 90% | 100% | – | 100% | 100% | – | – |
| CC(NC(=O)c1cc(Br)cc(C(F)(F)F)c1)c1nccnc1-c1ncc(C(=O)N(C)CC2CC2)s1 (racemic) [Example I-119, (rac)-2-(3-{1-[3-Bromo-5-(trifluoromethyl)benzamido]ethyl}pyrazin-2-yl)-N-(cyclopropylmethyl)-N-methyl-1,3-thiazole-5-carboxamide] | 100% | 100% | 90% | 100% | – | 100% | 100% | – | – |
| CC(NC(=O)c1cc(C(F)(F)F)cc(C(F)(F)F)c1)c1nccnc1-n1cc(C(=O)N2C[C@@H](C)O[C@@H](C)C2)cn1 (mixture of isomers) [Example I-138, (rac)-N-[1-(3-{4-[(cis)-2,6-Dimethylmorpholine-4-carbonyl]-1H-pyrazol-1-yl}pyrazin-2-yl)ethyl]-3,5-bis(trifluoromethyl)benzamide] | 100% | 100% | – | 100% | – | – | 100% | 100% | 100% |
| CC(NC(=O)c1cc(OC(F)F)cc(OC(F)F)c1)c1nccnc1-c1ncc(C(=O)N(C)CC2CC2)s1 (racemic) [Example I-143, (rac)-2-(3-{1-[3,5-Bis(difluoromethoxy)benzamido]ethyl}pyrazin-2-yl)-N-(cyclopropylmethyl)-N-methyl-1,3-thiazole-5-carboxamide] | 100% | 90% | – | 100% | – | 100% | 100% | – | – |
| CC(NC(=O)c1cc(Cl)cc(Br)c1)c1nccnc1-c1ccc(Cl)cn1 (centres unmarked) [Example I-19] | – | – | 80% | 100% | – | 100% | 100% | – | – |
| COc1ccc(-c2nccnc2C(C)NC(=O)c2cc(Br)cc(OC(F)(F)F)c2)nc1 (centres unmarked) [Example I-27] | 90% | 80% | 80% | – | 80% | – | 100% | – | – |
